Assay results taken from patent publication US20250066423A1, “SESTRIN-MAPK COMPLEX INHIBITORS” (Sentcell Ltd, priority 2021, published 2025).
Peptide text beside a SMILES is read from it.

Legend:
[1] = system: sMAC activation (Sestrin 2, p-p38); assay: Titration of DOS46L in senescent CD4+ CD27− CD28− T cells, immunoblot; format: cell-based, human; details: within 4 hours of treatment
Procedure: FIG. 7 illustrates titration of DOS46L. (A-B) CD4+ CD27− CD28− T cells were isolated from PBMCs from healthy donors and treated with increasing doses of DOS46L compound for 4 hours and harvested for immunoblot analysis. (A) Levels of Sestrin 2, p-p38 and H2B were evaluated by immunoblot. (B) Quantification of Sestrin 2 was analysed with Histone 3 as a loading control. Represented are the mean values±SEM of at least three independent experiments. Values are compared using One-Way ANOVA test followed by Tukey's post hoc test. (C-D) CD4+ CD27−CD28− T cells were treated with DOS46L compound (10 uM) for 0.5, 1, 2 and 4 hours and harvested for immunoblot analysis at indicated time points. (C) Levels of Sestrin 1, Sestrin 2, and Sestrin 3 were evaluated by immunoblot. Histone 3 was used as a loading control. (D) Quantification of Sestrin 1, Sestrin 2 and Sestrin 3, with Histone 3 as a loading control. Represented are the mean values±SEM of at least four independent experiments. Values are compared using One-Way ANOVA test followed by Tukey's post hoc test or Student's T-test. *p<0.05, **p<0.01
• 1. CD4+ cells were separated from PBMC using appropriate microbeads kit (Miltenyi) • 2. Cells were resuspended in whole RPMI medium and plated in the 24-multiwell plate • 3. Then activated for 4 hrs with DOS compounds • 4. […]

[2] = system: PBMCs from elderly donors, heat-inactivated SARS-COV2; assay: COVID-specific antibodies in PBMCs from elderly donors (ELISA); format: cell-based, human; details: PBMCs from elderly donors (75-95 years), 10 uM
sestrin mRNA = assay: Sestrin mRNA expression in spleens of DOS treated old mice (qPCR); format: in vivo; details: single dose, from day ten
Procedure: FIG. 13 illustrates the level of Sestrin in DOS-treated murine blood and tissues. (A-B) Old mice were inoculated subcutaneously with DOS46L compound (0.1 mg/kg or 1 mg/kg). Blood was withdrawn at 0, 48, 72 hours and 8 weeks after the inoculation. Pharmacodynamics of Sestrin 2 were analysed by FACS in CD4+ T cell population. […] Untreated age-matched controls are shown. (D) 72 hr after DOS treatment, mice were sacrificed and old tissues were collected to analyse Sestrin levels in different organs by immunoblotting. **p<0.01, *p<0.05.
• 1. Transduced cells were collected • 2. Cell suspension was centrifugated and the cell pellet resuspended in warm PBS with 5 μM of CTV • 3. Followed an incubation of 10 min at 37° C. • 4. Cold PBS was added and cells were centrifugated • 5. Cells were then resuspended in medium and counted • 6. An aliquot of these cells were checked by FACS • 7. Cells were then stimulated with DOS in 200 μL and left for 12 days in culture RNA Extraction, Retro-Transcription and qPCR • 1. CD4+ cells were purified from mouse spleen using appropriate microbeads (Miltenyi) • 2. Total RNA from CD4+ cells was extracted using the “PureLink RNA Mini Kit” (Invitrogen). • 3. RNA concentration was acquired by NANO-DROP spectrophotometer (Thermo-Scientific). • 4. […]

H1N1 PR8/54 = format: in vivo, mice

CC[C@H](C)[C@@H]1NC(=O)[C@H](Cc2ccccc2)NC(=O)[C@H](C)NC(=O)[C@H](C(C)C)NC(=O)[C@@H]2CCCN2C1=O [DOS46L] (cyclo(AFIPV))
concentration from which sMAC activation is suppressed [1]: 16 nM
COVID-specific IgG antibodies [2]: stimulation of COVID-specific antibodies
sestrin mRNA expression (sestrin mRNA): Long term mRNA silencing of sestrin expression
relative effectiveness at low dose (H1N1 PR8/54; 0.1. mg/Kg): more effective at a very low dose
survival data, comparison of compounds (H1N1 PR8/54; old mice, vaccination with DOS, H1N1 PR8/54): similar
